Measured values taken from publication PMC6356649, “Effect of Pentacyclic Guanidine Alkaloids from the Sponge Monanchora pulchra on Activity of α-Glycosidases from Marine Bacteria” (Marine Drugs, 2019).

Columns and labels:
[1] = target: T1, α-PsGal (recombinant wild-type α-D-galactosidase, GH36) (Pseudoalteromonas sp. KMM 701, UniProt Q19AX0); assay: inhibition of pNP-α-Gal hydrolysis; assay type: biochemical; conditions: competitive; reaction product; active site; pH 7.0, 20 °C; read-out: decreased the activity on 50%
T1 construct: recombinant from pET-40b(+) in E. coli Rosetta (DE3); two identical subunits; catalytic Asp451 and Asp516
T1 sequence (Q19AX0 1-710): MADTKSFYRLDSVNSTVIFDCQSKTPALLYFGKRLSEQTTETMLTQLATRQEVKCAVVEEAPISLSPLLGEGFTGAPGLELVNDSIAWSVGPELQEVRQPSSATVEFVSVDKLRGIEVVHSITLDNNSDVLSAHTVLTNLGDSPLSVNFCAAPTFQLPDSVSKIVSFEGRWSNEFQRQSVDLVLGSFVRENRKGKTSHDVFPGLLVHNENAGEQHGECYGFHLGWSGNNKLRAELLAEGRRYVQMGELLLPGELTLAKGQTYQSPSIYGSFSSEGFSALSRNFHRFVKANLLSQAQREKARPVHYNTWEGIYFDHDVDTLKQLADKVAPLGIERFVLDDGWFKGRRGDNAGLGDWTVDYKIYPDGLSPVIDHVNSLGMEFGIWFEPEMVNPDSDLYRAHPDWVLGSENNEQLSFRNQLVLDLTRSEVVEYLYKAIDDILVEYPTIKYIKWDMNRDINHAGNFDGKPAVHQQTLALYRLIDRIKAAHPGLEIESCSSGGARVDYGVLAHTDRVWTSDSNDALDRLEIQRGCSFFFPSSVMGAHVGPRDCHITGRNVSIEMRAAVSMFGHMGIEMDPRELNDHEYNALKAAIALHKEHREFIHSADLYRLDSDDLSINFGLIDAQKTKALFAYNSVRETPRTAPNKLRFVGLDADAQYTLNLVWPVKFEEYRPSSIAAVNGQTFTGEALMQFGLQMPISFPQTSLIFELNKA

[2] = target: T1, α-PsGal (recombinant wild-type α-D-galactosidase, GH36); assay: p-nitrophenol release at […] nm; assay type: biochemical; conditions: 0.05 M sodium phosphate, pH 7.0, 20 °C; Km only implied (3.32 mM stated as ~5 Km)

| SMILES | IC50 [1] [µM] | p-nitrophenol release at 400 nm [2] |
| --- | --- | --- |
| OC[C@H]1OC(O)[C@H](O)[C@@H](O)[C@H]1O (stereo partly drawn) [D-galactose] | 700 | – |
| O=[N+]([O-])c1ccc(O[C@H]2O[C@H](CO)[C@H](O)[C@H](O)[C@H]2O)cc1 [4-nitrophenyl-α-D-galactopyranoside] | – | p-nithrophenil galactopyranoside (pNP-α-Gal) for α-PsGal |
